In the METLIN SMRT retention time set (Domingo-Almenara et al. 2019) one finds RP-LC retention time data, which are given here for 58 molecules.

A short description of the data set: gradient 5% acetonitrile 3 min, to 50% in 2 min, to 85% in 15 min, held 3 min, 100 µL/min. Particulars: column: Zorbax Extend-C18 2.1 x 50 mm; eluents: water / acetonitrile, 0.1% formic acid. In outline: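 Data were gathered over 3 months by HPLC coupled to a quadrupole time-of-flight mass spectrometer, operated in positive and negative ionization mode. Mixtures of ~100 pure standards ran on a Zorbax Extend-C18 column (2.1 × 50 mm, 1.8 μm) at 100 μL/min, with water and acetonitrile each containing 0.1% formic acid and dead and dwell volumes of 40 μL and 900 μL. Retention time was read from adduct peaks picked by computer and checked manually.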
In turn, `COc1ccc(NC(=O)C2CCCN(c3cnc4nc(C)c(C)nc4c3)C2)c(C)c1` (stereo not drawn) displayed an RP-LC retention time of 712 s.

`CCn1cc(-c2nc(C(=O)Nc3ccc(C#N)cc3)cs2)c2cccnc21` displayed an RP-LC retention time of 1050 s.

For `O=C(CCN1C(=O)C2C3C=CC(C3)C2C1=O)Nc1nc(-c2ccccc2)cs1` (stereo not drawn), the RP-LC retention time stood at 926 s.

In turn, `O=C(Cn1ccc2ccc(N3CCCCC3)nc21)NCc1ccc(F)cc1Cl` returned an RP-LC retention time of 991 s. `C[C@@H]1CC2C3CCC4=CC(=O)C=CC4(C)[C@@]3(F)[C@@H](O)CC2(C)[C@@]1(O)C(=O)CO` (stereo partly drawn) had an RP-LC retention time of 737 s. The value for `CCCCS(=O)(=O)N1CC(c2nc(C)no2)C2(CCOCC2)C1` (stereo not drawn) was 783 s. The value for `O=C1CCN(C(=O)c2ccsc2)CCCOCCN1` was 586 s; that for `Cc1ccc(S(=O)(=O)N2CCC(C(=O)NCCc3csc(-c4cccs4)n3)CC2)cc1` was 913 s; that for `O=c1ccc(-c2ccccc2)nn1CCc1nc(-c2ccc(Br)cc2)no1` was 1060 s. With `CC(C)c1ccc(-n2nc(N3CCN(C(=O)Cc4cccs4)CC3)ccc2=O)cc1`, the RP-LC retention time stood at 898 s.

In the case of `Cc1ccc(-n2c(CN3CCN(C(=O)Nc4ccc5c(c4)OCCO5)CC3)nc3cccnc32)cc1`, the RP-LC retention time was 676 s. In turn, `O=[N+]([O-])c1ccc(-c2cn(-c3ccc(Cl)cc3)cn2)cc1` gave an RP-LC retention time of 933 s. Next, `CC(=O)N1CCC2(CC1)NC(=O)c1cccc(C)c1O2`: 650 s. Next, `Cc1sc(S(=O)(=O)N2CCSCC2)cc1NC(=O)c1ccc(C(C)(C)C)cc1`: 1150 s; `CC1CCCN(S(=O)(=O)c2ccc(-c3nnc(C4CC4)o3)o2)C1` (stereo not drawn): 940 s; `Cc1ccc(CNC(=O)c2csc(-c3cn(C)c4ncccc34)n2)cc1C`: 840 s. The molecule `CCC(=O)N1c2ccc(S(=O)(=O)N3CCCCC3)cc2CC1C(=O)NC1CC1` (stereo not drawn) yielded an RP-LC retention time of 758 s.

On to `CCOc1ccc(C(=O)NC(C(=O)Nc2nc3ccccc3[nH]2)C(C)C)cc1OCC` (stereo not drawn), for which the RP-LC retention time is 735 s. The molecule `CCN1c2ccc(C)cc2C(=O)NC12CCN(C(=O)c1ccc(C)cc1)CC2` registered an RP-LC retention time of 849 s. The value for `O=C(Nc1ccc(Cl)cc1)N1CCN(c2nc3ccccc3nc2C(F)(F)F)CC1` was 1150 s. Next, `CCCCN(CC)CCNC(=O)c1cn2c3c(ccc(Cl)c3c1=O)OCC2`: 758 s; `CC1(C)CC(=O)C2=C(C1)Nc1ccccc1N(CC(=O)NCc1ccncc1)C2c1ccco1` (stereo not drawn): 631 s.

The molecule `CC(=O)N1CCc2cc(N3CC(C(=O)Nc4ccccc4C(C)C)CC3=O)ccc21` (stereo not drawn) came in with an RP-LC retention time of 728 s. Next, `Cc1noc(-c2cc(=O)n(CC(=O)NCc3ccccc3F)c3ccccc23)n1`: 826 s.

In the case of `CCCc1nc(-c2c(C)cc(C)nc2NC(=O)c2cccc(Cl)c2)no1`, the RP-LC retention time was determined as 986 s.

As for `CN1CCC2(CC1)CN(C(=O)Nc1ccccc1)Cc1ccccc1O2`, the RP-LC retention time amounted to 637 s. Molecule `Cc1nnc2c(=O)n(CC(=O)NCc3cccc(C(F)(F)F)c3)c3cccnc3n12` returned an RP-LC retention time of 738 s.

The molecule `Cc1ccccc1-c1noc(CN2N=NC3C(=O)N(c4ccc(C(C)C)cc4)C(=O)C32)n1` (stereo not drawn) displayed an RP-LC retention time of 1150 s. `CC(CCNC(=O)C1CCN(Cc2cn(C)c3ccc(Cl)cc23)CC1)N1CCCCCC1` (stereo not drawn) gave an RP-LC retention time of 569 s. The value for `Cc1cccc(NC(=O)c2cnc3c(c2)c(=O)n(C)c(=O)n3-c2ccc(F)cc2)c1` was 904 s; that for `Cc1ccc(NC(=O)c2sc(-c3cn(C)c4ncccc34)nc2C)cc1F` was 1000 s; that for `NC(=O)C1CCN(C(=O)c2cn(-c3cccc(F)c3)nn2)CC1` was 608 s. The molecule `COc1cc(CN(C(=O)c2ccc(OC(C)C)cc2)C2CCS(=O)(=O)C2)cc(OC)c1OC` (stereo not drawn) returned an RP-LC retention time of 868 s. Regarding `Cc1ccsc1C(=O)N1CCCn2cc(-c3ccccc3)nc21`, the RP-LC retention time worked out at 686 s.

Regarding `CC(C)c1ccc(-n2ccnc(NC(=O)Nc3cccc(Cl)c3)c2=O)cc1`, the RP-LC retention time was 1240 s. The value for `CCC1CN(C(=O)N2CCC(C(=O)NCCN3CCOCC3)CC2)c2cc(C)ccc2O1` (stereo not drawn) was 632 s; that for `O=C(Cc1cccc(Cl)c1)N1CC(n2cnnc2C2CC2)C1` was 655 s; that for `NC(=O)c1c(NC(=O)C2CCCN(C(=O)c3ccc4c(c3)OCCO4)C2)sc2c1CCCC2` (stereo not drawn) was 839 s.

Molecule `Cc1noc2ncn(CC(=O)NCc3ccc(F)cc3)c(=O)c12` gave an RP-LC retention time of 724 s. The value for `CC1(C(=O)NCc2ccc(F)cc2)CCN(C(=O)Nc2ccc(F)cc2)CC1` was 804 s; that for `Cc1cnc(C(=O)NC2C[C@H]3CC[C@@H](C2)N3C(=O)C2CCCCCC2)cn1` (stereo partly drawn) was 733 s; that for `COc1ccccc1-c1noc(C2CCCN2C(=O)Nc2cccc(Cl)c2)n1` (stereo not drawn) was 941 s. In turn, `O=C(CC1CCN(C(=O)c2ccc3oc(C4CC4)nc3c2)CC1)NCC1CCCO1` (stereo not drawn) yielded an RP-LC retention time of 640 s.

With `CC(C)Oc1ccc(-c2noc(Cn3c(=O)n(CCc4ccccc4)c(=O)c4sccc43)n2)cc1`, the RP-LC retention time was found to be 1230 s. Molecule `COc1ccc(NC(=O)NCC(c2cccnc2)c2c[nH]c3ccccc23)c(OC)c1` (stereo not drawn) had an RP-LC retention time of 650 s. In turn, `COc1cccc(CN2CCC3(CCC3O)CC2)n1` (stereo not drawn) returned an RP-LC retention time of 569 s. The value for `CCN(CC)C(=O)c1ccc(-c2nc3cc(NS(=O)(=O)c4ccccc4F)ccc3n2C)cc1` was 679 s. As for `COc1ccc(OC)c(S(=O)(=O)N2CCCC(C(=O)NCc3ccccc3OC)C2)c1` (stereo not drawn), the RP-LC retention time came to 854 s. Next, `CCn1cc(CC(=O)NC2CCCCCC2)c2cccnc21`: 768 s. Next, `COc1cc(-c2nc(C3CC(=O)N(c4ccc(C)cc4)C3)no2)cc(OC)c1OC` (stereo not drawn): 834 s; `Cc1ccc(C)c(-c2csc(NC(=O)CCC(=O)O)n2)c1`: 781 s. Next, `CCc1ccc(NC(=O)N2CCc3nc(-c4ccc(OC)cc4)ncc3C2)cc1`: 995 s.

`Cc1cc(=O)n(Cc2ccc(OC(F)(F)F)cc2)c(Nc2ccc(F)c(F)c2)n1` gave an RP-LC retention time of 1300 s. Molecule `CCOc1ccc(-c2csc(Nc3ccc(C)cn3)n2)cc1` yielded an RP-LC retention time of 949 s. Molecule `CCN1CCN(CCCNC(=O)C2CCCN(c3nn4c(=O)c5c(nc4s3)CCCC5)C2)CC1` (stereo not drawn) returned an RP-LC retention time of 554 s. The value for `COc1ccc(-c2nc(NCCCN3CCC(N4CCCCC4)CC3)c3ccccc3n2)cc1` was 1210 s. For the molecule `O=C(NC1CCCCCC1)c1ccc2ccnc(N3CCN(c4ccccc4F)CC3)c2c1`, the RP-LC retention time is 973 s.

In turn, `Oc1ccc(Br)cc1CN1CCN(c2cc(-c3ccncc3)[nH]n2)CC1` showed an RP-LC retention time of 526 s.
